{"source": "patent US20230173029A1", "about": "“TREATMENT OF CARDIAC REMODELLING” (UNIVERSITETET I OSLO, priority 2020, published 2023)", "type_in_all_cases": "in vivo, rat", "key": {"[1]": {"test_system": "Dahl salt-sensitive (Dahl/SS) male rats", "experiment": "Tail-cuff blood pressure measurement in hypertensive Dahl/SS rats", "conditions": "for DBP (diastolic blood pressure) / MAP (mean arterial pressure) / SBP (systolic blood pressure): HT Dahl/SS rats on high salt diet, at 6 weeks, mean ± SEM", "description": "(§1) A total of 29 adult Dahl salt-sensitive (Dahl/SS) male rats with an initial weight of 150 to 200 g were included in the study. Rats were purchased from Charles River Laboratories (USA) and housed in a room with a 12/12-hour light cycle, a temperature of 21° C., and a humidity of 55%. Rats were maintained on a normal salt diet up to seven weeks of age. Twenty-two Dahl/SS were then randomly switched to a high salt diet for 6 weeks to induce hypertension, whilst 7 rats were kept normotensive (NT) on normal salt diet. Drinking water and food was provided ad libitum.\n(§2) After 2 weeks of high salt diet, 15 hypertensive (HT) rats were started on treatment with proANP31-67. Rats treated with proANP31-67 received one of two dosages: 50 ng/kg/day (n=8) or 100 ng/kg/day (n=7). A total of 14 rats received only vehicle: control rats on a normal salt diet (n=7); and HT rats on a high salt diet (n=7). Rats were randomly assigned to the 3 groups (i.e. control normal salt; high salt untreated; high salt plus treatment).\n(§3) Drug or vehicle was delivered via Alzet osmotic mini-pumps (Model 2004; mean pumping rate […], mean fill volume […]) implanted subcutaneously (as instructed by the manufacturer) for 28 days. Animals were treated with buprenorphine (0.05 mg/kg s.c.) as analgesic 30 minutes before and up to 1 day following implantation of pumps.\nMeasurement was carried out using the CODA non-invasive blood pressure acquisition system for rats (Kent Scientific Corporation). Animals were kept in restraint tubes and placed over a heating platform (preheated to 33 to 35° C.) and blood pressure measured by a tail-cuff system. Each recording session consisted of 25 acclimation cycles (not used in the analysis), followed by 20 inflation and deflation cycles (the occlusion cuff is inflated to 250 mm Hg and deflated over 20 s). Rats were trained for at least 5 consecutive days before blood pressure measurements were recorded.\nExperiments were performed as described above in Example 1, using a group of 8 Dahl/SS rats which, at 7 weeks of age, were switched to a high salt diet as described above. After 2 weeks of high salt diet, this group was started on proANP31-67 treatment. The rats were administered proANP31-67 at a renal sub-therapeutic dosage of 25 ng/kg/day."}, "[2]": {"test_system": "Myh7", "experiment": "Myh7 gene expression in left ventricle tissue by qPCR", "conditions": "HT Dahl/SS rats", "description": "as §1\nAfter 2 weeks of high salt diet, 15 hypertensive (HT) rats were started on treatment with proANP31-67. Rats treated with proANP31-67 received one of two dosages: 50 ng/kg/day (n=8) or 100 ng/kg/day (n=7). […]\nTotal RNA was extracted from left ventricle tissue using an RNeasy Fibrous Tissue Mini Kit (Qiagen, Cat. #74704). RNA concentration and quality was assessed by NanoDrop ND-1000 Spectrophotometer (Thermo Fisher Scientific). cDNA synthesis was performed using an iSCRIPT synthesis kit (Bio-Rad). Transcript levels of Mhy7 (Rn00568328_m1) and Rpl32 (Rn00820748_g1) were determined using TaqMan assays (Applied Biosystems) detected on a QuantStudio3 (Thermo Fisher Scientific) and analysed using QuantStudio™ Design (Thermo Fisher Scientific). Mhy7 mRNA levels were calculated by the ΔΔCt method and normalized to Rpl32 transcript value. […]"}, "[3]": {"test_system": "left ventricular cardiomyocytes", "experiment": "Cardiomyocyte isolation and t-tubule structure (di-8-ANEPPS confocal imaging)", "conditions": "HT Dahl/SS rats, 50 or 100 ng/kg/day s.c. (pooled)", "description": "as §1, §2, §3\nA subset of rats was used for analyses of t-tubule structure in isolated left ventricular cardiomyocytes. These animals were anaesthetised as described above and euthanised by removal of the heart. […]\nCardiomyocytes were then isolated as previously described (Frisk et al., American Journal of Physiology—Heart and Circulatory 307: H609-620, 2014). […] Fluorescence was excited at 488 nm and emitted light above 500 nm was measured. t-tubule captures were recorded with 1871×1871-pixel XY images, recorded as z-stacks (spatial resolution: 77×77×500 nm). […] Cell area, t-tubule density and distance to nearest t-tubule or sarcolemmal membrane were analysed as previously described (Frisk et al., Cardiovascular Research 112: 445-451, 2016)."}, "[4]": {"conditions": "50 or 100 ng/kg/day s.c. (pooled) for 28 days"}}}
{"substance": "proANP31-67: Human proANP31-67, linear peptide fragment of proANP consisting of SEQ ID NO: 1; also known as vessel dilator, VSDL (EVVPPQVLSEPNEEAGAALSPLPEVPPWTGEVSPAQR; listed as Homo sapiens)", "values": [{"measurement": "DBP (diastolic blood pressure)", "setting": "[1]; 25 ng/kg/day s.c.", "value": "120.1 ± 4.7", "unit": "mmHg"}, {"measurement": "MAP (mean arterial pressure)", "setting": "[1]; 25 ng/kg/day s.c.", "value": "138.6 ± 4.1", "unit": "mmHg"}, {"measurement": "SBP (systolic blood pressure)", "setting": "[1]; 25 ng/kg/day s.c.", "value": "176.5 ± 3.4", "unit": "mmHg"}, {"measurement": "DBP (diastolic blood pressure)", "setting": "[1]; [4]", "value": "128.2 ± 2.3", "unit": "mmHg"}, {"measurement": "MAP (mean arterial pressure)", "setting": "[1]; [4]", "value": "144.9 ± 2.3", "unit": "mmHg"}, {"measurement": "SBP (systolic blood pressure)", "setting": "[1]; [4]", "value": "179.3 ± 2.4", "unit": "mmHg"}, {"measurement": "effect on systolic blood pressure", "setting": "[1]; HT Dahl/SS rats, 25 ng/kg/day s.c., FIG. 5A", "value": "no effect"}, {"measurement": "effect on elevated systolic blood pressure", "setting": "[1]; HT Dahl/SS rats, 50 or 100 ng/kg/day s.c. (pooled), FIG. 1A", "value": "not lowered"}, {"measurement": "expression of the Myh7 gene associated with adverse cardiac hypertrophy", "setting": "[2]; 25 ng/kg/day s.c., FIG. 5F", "value": "attenuated"}, {"measurement": "expression of the Myh7 gene associated with adverse cardiac hypertrophy", "setting": "[2]; 50 or 100 ng/kg/day s.c. (pooled), FIG. 1F", "value": "attenuated"}, {"measurement": "cardiomyocyte size", "setting": "[3]; FIG. 3B", "value": "preserved"}, {"measurement": "t-tubule density", "setting": "[3]; FIG. 3C", "value": "normal"}, {"measurement": "increase of maximal intracellular distance from each point in the cytosol to the nearest t-tubule or surface membrane", "setting": "[3]; FIG. 3D", "value": "prevented"}]}
